Measured values from US12092631B2, “Optical thromboelastography systems and methods” (The General Hospital Corporation, priority 2014, dated 2024).

How the values were obtained:
[1] = test system: platelets in human whole blood; test: OTEG platelet aggregate size in ADP-activated human whole blood; assay type: cell-based; conditions: FIG. 8B
Method: FIGS. 8A, 8B: Preliminary studies to assess platelet aggregation using OTEG methodology. FIG. 8A: Increasing aggregate radius, a, of polystyrene beads (rad=1.5 μm) caused by adding MgCl2 salt is detected by OTEG. Aggregate size was related with salt concentration, confirmed by other reports. FIG. 8B: In human whole blood, OTEG detects a 5-fold and 2.5-fold increase in aggregate size with addition of 10 and 5 μM ADP relative to blood without ADP (control). […] To enable platelet function assessment (PLT channel) via the embodiment of the OTEG device of the present invention, a new strategy was implemented to quantify platelet aggregation in whole blood. […] To estimate the rate and extent of platelet aggregation, speckle frames are processed and MSD values are calculated, as above (FIG. 5; box 3). […] The effective particle radius, a, is then obtained from the Stokes-Einstein relation (SER) (FIG. 5: box 4c), the aggregate growth from the baseline at time t=0 is plotted, and the maximum extent of platelet aggregation (RPLT) is estimated at 10 min to quantify platelet function (FIG. 12B). […] We further verified the capability to detect platelet aggregation in ADP-activated blood and monitored the change of effective aggregate radius. […] Clearly, the effective aggregate radius increase with ADP concentration and can be detected with OTEG with high sensitivity. […]

[2] = test system: platelets in platelet rich plasma; test: OTEG platelet aggregation/disaggregation in platelet rich plasma specimens; assay type: cell-based; conditions: FIG. 19A
Method: FIG. 15B is a block-scheme representing an embodiment of the processing algorithm according to the invention for calculating the platelet aggregate size from speckle fluctuations in the plasma. Platelet rich plasma specimen is transferred into an OTEG cartridge, customized for platelet function assessment and preloaded with 20 μl Adenosine 5′-diphosphate solution (Sigma-Aldrich) (i.e. 5 μM final concentration of ADP in the […]). The cartridge is inserted in the OTEG device and speckle acquisition begins immediately. During acquisition, ADP triggers conformational changes followed by aggregation, which increase the average scattering particle radius. Since Ca′ ions are absent, coagulation cascade is not initiated and the plasma appears as a primarily viscous liquid with the viscosity of η=3 centipoises (@ 37° C.), particularly at small length scales probed by platelets. Compared to small isolated platelets, large aggregates experience a shorter range of diffusive motion and induce slower speckle fluctuations. To estimate the rate of platelet aggregation, speckle frames are processed and speckle intensity autocorrelation functions are calculated. Since plasma is an optically dilute material, the mean square displacements (MSD) values of platelet aggregates can be extracted from the g2(t) curves, using the DLS formalism, as shown in FIG. 7(B), box 2. Fitting the MSD to a linear model of MSD=6Dt at early times provides the diffusion coefficient, D, of scattering particles. The effective scattering radius is then obtained from the Stokes-Einstein relation as: α=KbT/(6πDη), where Kb is the Boltzman constant and T is the temperature (degrees Kelvin).

| SMILES | increase in aggregate size relative to blood without ADP (control) ([1]; 5 μM ADP) | increase in aggregate size relative to blood without ADP (control) ([1]; 10 μM ADP) | platelet aggregation detected by OTEG ([2]; ADP final concentration 5 μM) | platelet aggregation detected by OTEG ([2]; ADP 5 μM plus Clopidogrel 3 μM) | platelet aggregation detected by OTEG ([2]; ADP 5 μM plus Clopidogrel 30 μM) |
| --- | --- | --- | --- | --- | --- |
| Nc1ncnc2c1ncn2[C@@H]1O[C@H](COP(=O)(O)OP(=O)(O)O)[C@@H](O)[C@H]1O [ADP, Adenosine 5′-diphosphate] | 2.5 fold | 5 fold | rapid and complete platelet aggregation | – | – |
| COC(=O)[C@H](c1ccccc1Cl)N1CCc2sccc2C1 [Clopidogrel] | – | – | – | rapid initial aggregation, followed by a rapid disaggregation | no aggregation |
